Patent publication US20250144067A1, “PERSONALIZED STARVATION THERAPY FOR CANCER” (Faeth Therapeutics, Inc., priority 2021, published 2025)
Counter-ions that a name gives are not always drawn.

Legend:
[1] = test system: NCI-H292 lung cancer cells; experiment: FDA drug screening, complete media vs cholesterol-free media without statin (TABLE 1); type: cell-based, human
[2] = test system: NCI-H292 lung cancer cells; experiment: FDA drug screening, complete media vs cholesterol-free media with simvastatin (TABLE 2); type: cell-based, human; conditions: for Cholesterol-free media + simvastatin (0.04 μM) / Complete Media: NCI-H292 cells
[3] = NCI-H292 cells, cholesterol-free media without statin, FDA drug library screen
[4] = NCI-H292 cells, complete media, FDA drug library screen
[5] = complete vs cholesterol-free media, >0 enhanced anti-cancer activity, about 0 neutral, <0 antagonist
[6] = FDA drug library screen, cholesterol-free media with simvastatin 0.04 μM
[7] = FDA drug library screen, complete media
[8] = complete media minus cholesterol-free media + simvastatin, >0 enhanced anti-cancer activity, about 0 neutral, <0 antagonist
[9] = drug in cholesterol-free media with simvastatin 0.04 μM
[10] = complete media vs cholesterol-free media + simvastatin (0.04 μM), >0 enhanced anti-cancer activity, about 0 neutral, <0 antagonist
[11] = NCI-H292 cells, cholesterol-free media without statin
[12] = complete vs cholesterol-free media, greater than 0 enhanced anti-cancer activity, about 0 neutral, below 0 antagonists
[13] = cholesterol-free media with simvastatin 0.04 μM, FDA drug library screen (TABLE 2)
[14] = complete media, FDA drug library screen (TABLE 2)
[15] = complete media minus cholesterol-free media + simvastatin (0.04 μM), >0 enhanced anti-cancer activity, about 0 neutral, <0 antagonist
[16] = Complete minus Cholesterol-free, >0 enhanced anti-cancer activity, about 0 neutral, <0 antagonist
[17] = Complete minus Cholesterol-free, greater than 0 enhanced anti-cancer activity, about 0 neutral, below 0 antagonists
[18] = NCI-H292 cells in cholesterol-free media without statin
[19] = NCI-H292 cells in complete media
[20] = cholesterol-free media with simvastatin 0.04 μM, cell growth value in FDA drug screen
[21] = complete media, cell growth value in FDA drug screen
[22] = Complete minus Cholesterol-free, greater than 0 enhanced anti-cancer activity, about 0 neutral, below 0 antagonist
[23] = NCI-H292 cells, FDA drug library screen, cholesterol-free media without statin
[24] = NCI-H292 cells, FDA drug library screen, complete media
[25] = FDA library drug in cholesterol-free media with simvastatin 0.04 μM
[26] = FDA library drug in complete media

Compound | Cholesterol-free [1, 3] | Complete [1, 4] | Cholesterol-free media + simvastatin (0.04 μM) [2, 6] | Complete Media [2, 7] | Difference [2, 10] | Cholesterol-free [1, 11] | Complete ([1]; NCI-H292 cells, complete media) | Difference [1, 16] | further results
CCCCCCCCCC(=O)OCCN1CCN(CCCN2c3ccccc3Sc3ccc(C(F)(F)F)cc32)CC1 [Fluphenazine decanoate] | 0.4638 | 1.069 | 0.7434 | 0.9759 |  |  |  |  | Difference [1, 5]: 0.60; Difference [2, 8]: 0.23
Cc1cc(C2=NOC(c3cc(Cl)cc(Cl)c3)(C(F)(F)F)C2)ccc1C(=O)NCC(=O)NCC(F)(F)F (stereo not drawn) [Fluralaner] | 0.6434 | 1.375 |  |  |  |  |  |  | Difference ([1]; complete vs cholesterol-free media, […]): 0.73; Cholesterol-free media + simvastatin (0.04 μM) [2, 9]: 1.609; Complete Media ([2]; drug in complete media): 1.41; Difference ([2]; complete media vs cholesterol-free media + simvastatin (0.04 μM), […]): −0.20
CC(C(=O)O)c1ccc(-c2ccccc2)c(F)c1 (stereo not drawn) [Flurbiprofen] | 1.072 | 1.387 |  |  | −0.18 |  |  |  | Difference [1, 5]: 0.31; Cholesterol-free media + simvastatin (0.04 μM) [2, 9]: 1.217; Complete Media ([2]; drug in complete media): 1.042
O=C1NCN(c2ccccc2)C12CCN(CCCC(c1ccc(F)cc1)c1ccc(F)cc1)CC2 [Fluspirilene] |  |  |  |  |  | 1.319 | 0.9067 |  | Difference [1, 12]: −0.41; Cholesterol-free media + simvastatin (0.04 μM) [2, 13]: 1.267; Complete Media [2, 14]: 1.241; Difference [2, 15]: −0.03
CC(C)C(=O)Nc1ccc([N+](=O)[O-])c(C(F)(F)F)c1 [Flutamide] |  |  |  |  |  | 1.049 | 0.7826 | −0.27 | Cholesterol-free media + simvastatin (0.04 μM) [2, 13]: 0.8786; Complete Media [2, 14]: 0.855; Difference [2, 15]: −0.02
CCC(=O)O[C@]1(C(=O)SCF)[C@H](C)C[C@H]2[C@@H]3C[C@H](F)C4=CC(=O)C=C[C@]4(C)[C@@]3(F)[C@@H](O)C[C@@]21C [Fluticasone (propionate)] |  |  | 0.7423 | 0.6072 | −0.14 |  |  |  | Difference [1, 17]: −0.60; Cholesterol-free [1, 18]: 1.466; Complete [1, 19]: 0.8611
C[C@@H]1C[C@H]2[C@@H]3C[C@H](F)C4=CC(=O)C=C[C@]4(C)[C@@]3(F)[C@@H](O)C[C@]2(C)[C@@]1(OC(=O)c1ccco1)C(=O)SCF [Fluticasone furoate] |  |  |  |  |  | 1.047 | 0.6144 |  | Difference [1, 12]: −0.43; Cholesterol-free media + simvastatin (0.04 μM) [2, 20]: 0.7104; Complete Media [2, 21]: 0.7486; Difference [2, 8]: 0.04
CC(C)n1c(/C=C/C(O)CC(O)CC(=O)O)c(-c2ccc(F)cc2)c2ccccc21 (stereo not drawn) [Fluvastatin (sodium)] |  |  | 0.3266 | 0.199 | −0.13 | 0.3896 | 0.168 | −0.22 | 
Nc1nc2ncc(CNc3ccc(C(=O)N[C@@H](CCC(=O)O)C(=O)O)cc3)nc2c(=O)[nH]1 [Folic acid] |  |  |  |  | −0.17 | 1.731 | 1.312 |  | Difference [1, 12]: −0.42; Cholesterol-free media + simvastatin (0.04 μM) [2, 9]: 1.118; Complete Media ([2]; drug in complete media): 0.9443
Nc1nc(=O)c2c([nH]1)NC[C@@H](CNc1ccc(C(=O)N[C@@H](CCC(=O)O)C(=O)O)cc1)N2C=O [Folinic acid] |  |  |  |  | −0.28 |  |  |  | Difference [1, 22]: −0.12; Cholesterol-free [1, 23]: 1.105; Complete [1, 24]: 0.9813; Cholesterol-free media + simvastatin (0.04 μM) [2, 25]: 1.232; Complete Media [2, 26]: 0.9515
Cc1cn[nH]c1 [Fomepizole] |  |  | 0.8562 | 1.121 |  | 1.239 | 0.9771 | −0.26 | Difference [2, 8]: 0.26
CO[C@H]1O[C@H](COS(=O)(=O)O)[C@@H](O[C@@H]2O[C@@H](C(=O)O)[C@@H](O[C@H]3O[C@H](COS(=O)(=O)O)[C@@H](O[C@@H]4O[C@H](C(=O)O)[C@@H](O[C@H]5O[C@H](COS(=O)(=O)O)[C@@H](O)[C@H](O)[C@H]5NS(=O)(=O)O)[C@H](O)[C@H]4O)[C@H](OS(=O)(=O)O)[C@H]3NS(=O)(=O)O)[C@H](O)[C@H]2OS(=O)(=O)O)[C@H](O)[C@H]1NS(=O)(=O)O [Fondaparinux (sodium)] |  |  |  |  | −0.29 |  |  |  | Difference [1, 22]: −0.10; Cholesterol-free [1, 23]: 1.098; Complete [1, 24]: 1; Cholesterol-free media + simvastatin (0.04 μM) [2, 25]: 1.182; Complete Media [2, 26]: 0.8937
CC(C)CN(C[C@@H](OP(=O)(O)O)[C@H](Cc1ccccc1)NC(=O)O[C@H]1CCOC1)S(=O)(=O)c1ccc(N)cc1 [Fosamprenavir (Calcium Salt)] |  |  |  |  |  |  |  |  | Difference [1, 22]: −0.11; Cholesterol-free [1, 23]: 1.061; Complete [1, 24]: 0.9495; Cholesterol-free media + simvastatin (0.04 μM) [2, 20]: 0.8511; Complete Media [2, 21]: 0.8779; Difference [2, 8]: 0.03
CC(C)CN(C[C@@H](OP(=O)(O)O)[C@H](Cc1ccccc1)NC(=O)O[C@H]1CCOC1)S(=O)(=O)c1ccc(N)cc1 [Fosamprenavir] | 0.7855 | 0.7241 | 1.194 | 1.12 | −0.07 |  |  | −0.06 | 
O=C(O)P(=O)(O)O [Foscarnet (sodium)] |  |  |  |  | −0.17 | 1.261 | 0.9196 |  | Difference [1, 12]: −0.34; Cholesterol-free media + simvastatin (0.04 μM) [2, 9]: 1.224; Complete Media ([2]; drug in complete media): 1.051
C[C@@H]1O[C@@H]1P(=O)(O)O [Fosfomycin (calcium)] |  |  |  |  | −0.21 | 1.27 | 1.001 | −0.27 | Cholesterol-free media + simvastatin (0.04 μM) [2, 9]: 1.093; Complete Media ([2]; drug in complete media): 0.8864
C[C@@H]1O[C@@H]1P(=O)(O)O [Fosfomycin (sodium)] |  |  | 1.163 | 1.004 | −0.16 | 1.096 | 0.8782 | −0.22 | 
CCC(=O)O[C@@H](O[P@](=O)(CCCCc1ccccc1)CC(=O)N1C[C@H](C2CCCCC2)C[C@H]1C(=O)O)C(C)C [Fosinopril (sodium)] |  |  | 0.91 | 1.199 |  |  |  |  | Difference [1, 17]: −0.52; Cholesterol-free [1, 18]: 1.831; Complete [1, 19]: 1.313; Difference [2, 8]: 0.29
O=C1NC(c2ccccc2)(c2ccccc2)C(=O)N1COP(=O)(O)O [Fosphenytoin (disodium)] |  |  |  |  | −0.57 |  |  |  | Difference [1, 17]: −1.22; Cholesterol-free [1, 18]: 2.489; Complete [1, 19]: 1.268; Cholesterol-free media + simvastatin (0.04 μM) [2, 25]: 1.806; Complete Media [2, 26]: 1.233
COc1cc(Nc2ncc(F)c(Nc3ccc4c(n3)N(COP(=O)(O)O)C(=O)C(C)(C)O4)n2)cc(OC)c1OC [Fostamatinib (disodium hexahydrate)] | 0.5454 | 0.5466 | 0.9752 | 0.8745 | −0.10 |  |  | 0.00 | 
COc1cc(Nc2ncc(F)c(Nc3ccc4c(n3)N(COP(=O)(O)O)C(=O)C(C)(C)O4)n2)cc(OC)c1OC [Fostamatinib Disodium] |  |  | 0.7811 | 0.6698 | −0.11 | 1.102 | 0.9004 | −0.20 | 
COc1cc(Nc2ncc(F)c(Nc3ccc4c(n3)N(COP(=O)(O)O)C(=O)C(C)(C)O4)n2)cc(OC)c1OC [Fostamatinib] |  |  |  |  | −0.36 | 0.7013 | 0.4125 | −0.29 | Cholesterol-free media + simvastatin (0.04 μM) [2, 25]: 1.406; Complete Media [2, 26]: 1.042
O=C(CO)[C@@H](O)[C@H](O)[C@H](O)CO [Fructose] | 1.048 | 1.329 |  |  | −0.87 |  |  |  | Difference [1, 5]: 0.28; Cholesterol-free media + simvastatin (0.04 μM) [2, 25]: 2.032; Complete Media [2, 26]: 1.165
CNC(=O)c1c(C)oc2cc(Oc3ncnc4cc(OC)c(OC)cc34)ccc12 [Fruquintinib] | 0.9702 | 0.994 | 1.198 | 1.059 | −0.14 |  |  | 0.02 | 
N[C@@H](CSCCCO)C(=O)O [Fudosteine] | 1.084 | 1.177 | 1.309 | 1.163 | −0.15 |  |  |  | Difference [1, 5]: 0.09
C[C@]12CC[C@@H]3c4ccc(O)cc4C[C@@H](CCCCCCCCC[S+]([O-])CCCC(F)(F)C(F)(F)F)[C@H]3[C@@H]1CC[C@@H]2O (stereo partly drawn) [Fulvestrant] |  |  | 1.051 | 0.9579 | −0.09 | 1.364 | 1.074 | −0.29 | 
